Test results taken from patent US20220340597A1, “HEXAHYDRO-1H-PYRAZINO[1,2-A]PYRAZINE COMPOUNDS FOR THE TREATMENT OF AUTOIMMUNE DISEASE” (Hoffmann-La Roche Inc., priority 2019, published 2022).

Columns and labels:
human TLR8 = biological target: T1, human TLR8 (Homo sapiens, UniProt Q9NR97); assay: HEK293-Blue-hTLR-8 cells assay
T1 sequence (Q9NR97 27-1041): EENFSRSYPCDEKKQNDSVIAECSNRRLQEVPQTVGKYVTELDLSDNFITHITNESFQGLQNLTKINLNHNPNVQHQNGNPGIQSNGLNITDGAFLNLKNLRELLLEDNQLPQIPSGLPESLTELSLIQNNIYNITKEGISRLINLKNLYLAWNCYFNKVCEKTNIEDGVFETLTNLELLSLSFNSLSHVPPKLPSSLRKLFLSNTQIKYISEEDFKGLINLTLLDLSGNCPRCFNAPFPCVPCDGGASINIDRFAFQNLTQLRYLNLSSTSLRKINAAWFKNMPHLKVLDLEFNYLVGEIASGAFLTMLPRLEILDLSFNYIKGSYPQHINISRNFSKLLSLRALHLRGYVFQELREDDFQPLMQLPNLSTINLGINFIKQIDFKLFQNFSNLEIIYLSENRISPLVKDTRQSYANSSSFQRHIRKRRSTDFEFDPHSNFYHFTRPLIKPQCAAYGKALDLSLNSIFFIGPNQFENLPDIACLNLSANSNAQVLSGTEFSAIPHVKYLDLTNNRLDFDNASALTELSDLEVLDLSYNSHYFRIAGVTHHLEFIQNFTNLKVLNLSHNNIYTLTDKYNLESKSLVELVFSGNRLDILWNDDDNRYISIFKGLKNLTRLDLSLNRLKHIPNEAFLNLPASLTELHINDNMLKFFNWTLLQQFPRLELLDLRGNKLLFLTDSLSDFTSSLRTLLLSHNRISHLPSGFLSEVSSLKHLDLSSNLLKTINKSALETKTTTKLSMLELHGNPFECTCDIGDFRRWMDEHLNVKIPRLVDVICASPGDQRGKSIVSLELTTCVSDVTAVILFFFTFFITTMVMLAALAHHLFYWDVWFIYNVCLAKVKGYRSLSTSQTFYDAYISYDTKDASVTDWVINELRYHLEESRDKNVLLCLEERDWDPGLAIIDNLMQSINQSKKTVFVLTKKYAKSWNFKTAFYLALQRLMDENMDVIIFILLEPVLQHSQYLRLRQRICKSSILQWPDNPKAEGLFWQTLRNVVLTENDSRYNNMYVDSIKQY

human TLR7 = biological target: T2, human TLR7 (Homo sapiens, UniProt Q9NYK1); assay: HEK293-Blue-hTLR-7 cells assay; assay type: cell-based; conditions: HEK293-Blue-hTLR7 cells, R848 stimulation, 20 hrs, SEAP reporter; read-out: HEK/hTLR7 IC50
T2 construct: host or cells: HEK293 (HEK-Blue hTLR7)
T2 sequence (Q9NYK1 27-1049): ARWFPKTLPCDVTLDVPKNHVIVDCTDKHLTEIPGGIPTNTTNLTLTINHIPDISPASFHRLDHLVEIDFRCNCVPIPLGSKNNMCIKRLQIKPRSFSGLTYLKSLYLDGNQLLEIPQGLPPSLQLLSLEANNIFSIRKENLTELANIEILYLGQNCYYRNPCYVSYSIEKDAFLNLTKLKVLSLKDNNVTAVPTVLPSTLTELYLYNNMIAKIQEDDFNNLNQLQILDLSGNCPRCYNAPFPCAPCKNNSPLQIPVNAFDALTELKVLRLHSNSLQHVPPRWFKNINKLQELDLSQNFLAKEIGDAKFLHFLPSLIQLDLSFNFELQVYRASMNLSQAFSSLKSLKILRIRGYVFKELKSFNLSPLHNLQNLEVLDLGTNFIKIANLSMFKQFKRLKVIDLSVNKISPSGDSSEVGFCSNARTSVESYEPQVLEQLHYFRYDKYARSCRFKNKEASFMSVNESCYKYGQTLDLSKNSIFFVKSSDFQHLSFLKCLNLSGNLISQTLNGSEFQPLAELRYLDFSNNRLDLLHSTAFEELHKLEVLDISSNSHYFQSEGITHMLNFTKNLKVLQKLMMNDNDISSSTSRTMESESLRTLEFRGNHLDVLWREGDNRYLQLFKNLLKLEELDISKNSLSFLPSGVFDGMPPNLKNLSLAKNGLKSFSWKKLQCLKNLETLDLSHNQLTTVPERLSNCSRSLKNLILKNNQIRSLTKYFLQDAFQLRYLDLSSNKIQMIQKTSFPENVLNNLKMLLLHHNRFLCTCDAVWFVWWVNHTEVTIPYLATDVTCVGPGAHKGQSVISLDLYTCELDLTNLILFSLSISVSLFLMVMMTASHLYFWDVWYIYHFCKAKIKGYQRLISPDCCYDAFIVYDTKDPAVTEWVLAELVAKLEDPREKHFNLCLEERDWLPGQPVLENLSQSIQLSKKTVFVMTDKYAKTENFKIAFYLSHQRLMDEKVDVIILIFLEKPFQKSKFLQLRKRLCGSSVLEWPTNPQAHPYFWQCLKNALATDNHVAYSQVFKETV

IC50 (human TLR8)	IC50 (human TLR7)	SMILES
30 nM	5 nM	C[C@@H]1CN(c2ccc(C#N)c3ncccc23)C[C@@H]2CN(CCc3ccc(N4CCNCC4)cc3)CCN21 [Example 7, 5-[(4R,9aS)-4-methyl-8-[2-(4-piperazin-1-ylphenyl)ethyl]-3,4,6,7,9,9a-hexahydro-1H-pyrazino[1,2-a]pyrazin-2-yl]quinoline-8-carbonitrile]
21 nM	7 nM	C[C@@H]1CN(c2ccc(C#N)c3ncccc23)C[C@@H]2CN(CCc3ccc(N4CCNCC4)nc3)CCN21 [Example 11, 5-[(4R,9aS)-4-methyl-8-[2-(6-piperazin-1-yl-3-pyridyl)ethyl]-3,4,6,7,9,9a-hexahydro-1H-pyrazino[1,2-a]pyrazin-2-yl]quinoline-8-carbonitrile]
7 nM	35 nM	C[C@@H]1CN(c2ccc(C#N)c3ncccc23)C[C@@H]2CN(c3ccnc(N4CC(N)C4)c3)CCN21 [Example 41, 5-[(4R,9aS)-8-[2-(3-aminoazetidin-1-yl)-4-pyridyl]-4-methyl-3,4,6,7,9,9a-hexahydro-1H-pyrazino[1,2-a]pyrazin-2-yl]quinoline-8-carbonitrile]
15 nM	8 nM	CO[C@H]1CN(c2ccc(CCN3CCN4[C@@H](C3)CN(c3ccc(C#N)c5ncccc35)C[C@H]4C)cn2)C[C@H]1N [Example 24, 5-[(4R,9aS)-8-[2-[6-[(3R,4S)-3-amino-4-methoxy-pyrrolidin-1-yl]-3-pyridyl]ethyl]-4-methyl-3,4,6,7,9,9a-hexahydro-1H-pyrazino[1,2-a]pyrazin-2-yl]quinoline-8-carbonitrile]
15 nM	12 nM	C[C@@H]1CN(c2ccc(C#N)c3ncccc23)C[C@@H]2CN(Cc3cccc4c3CNC4)CCN21 [Example 72, 5-[(4R,9aS)-8-(isoindolin-4-ylmethyl)-4-methyl-3,4,6,7,9,9a-hexahydro-1H-pyrazino[1,2-a]pyrazin-2-yl]quinoline-8-carbonitrile]
40 nM	20 nM	C[C@@H]1CN(c2cccc(CCN3CCN4[C@@H](C3)CN(c3ccc(C#N)c5ncccc35)C[C@H]4C)n2)CCN1 [Example 58, 5-[(4R,9aS)-4-methyl-8-[2-[6-[(3R)-3-methylpiperazin-1-yl]-2-pyridyl]ethyl]-3,4,6,7,9,9a-hexahydro-JH-pyrazino[1,2-a]pyrazin-2-yl]quinoline-8-carbonitrile]
13 nM	21 nM	C[C@@H]1CN(c2ccc(C#N)c3ncccc23)C[C@@H]2CN(Cc3cccc(N4CCNCC4)n3)CCN21 [Example 27, 5-[(4R,9aS)-4-methyl-8-[(6-piperazin-1-yl-2-pyridyl)methyl]-3,4,6,7,9,9a-hexahydro-1H-pyrazino[1,2-a]pyrazin-2-yl]quinoline-8-carbonitrile]
28 nM	49 nM	C[C@@H]1CN(c2ccc(C#N)c3ncccc23)C[C@@H]2CN(Cc3ccc(N4CCCNCC4)nc3)CCN21 [Example 15, 5-[(4R,9aS)-8-[[6-(1,4-diazepan-1-yl)-3-pyridyl]methyl]-4-methyl-3,4,6,7,9,9a-hexahydro-JH-pyrazino[1,2-a]pyrazin-2-yl]quinoline-8-carbonitrile]
24 nM	23 nM	[2H]c1ccc2c(N3C[C@@H]4CN(c5ccc(CCN6C[C@@H](N)[C@@H](F)C6)nc5)CCN4[C@@H](C)C3)ccc(C#N)c2n1 [Example 117, 5-[(4S,9aR)-8-[6-[2-[(3R,4S)-3-amino-4-fluoro-pyrrolidin-1-yl]ethyl]-3-pyridyl]-4-methyl-3,4,6,7,9,9a-hexahydro-1H-pyrazino[1,2-a]pyrazin-2-yl]-2-deuterio-quinoline-8-carbonitrile]
25 nM	13 nM	CO[C@H]1CN(c2ccc(CCN3CCN4[C@@H](C3)CN(c3ccc(C#N)c5ncccc35)C[C@H]4C)cn2)C[C@@H]1N [Example 25, 5-[(4R,9aS)-8-[2-[6-[(3S,4S)-3-amino-4-methoxy-pyrrolidin-1-yl]-3-pyridyl]ethyl]-4-methyl-3,4,6,7,9,9a-hexahydro-1H-pyrazino[1,2-a]pyrazin-2-yl]quinoline-8-carbonitrile]
8 nM	2 nM	Cc1cc(N2CCNCC2)ncc1N1CCN2CCN(c3ccc(C#N)c4ncccc34)CC2C1 (stereo not shown) [Example 38, 5-[2-(4-methyl-6-piperazin-1-yl-3-pyridyl)-3,4,6,7,9,9a-hexahydro-1H-pyrazino[1,2-a]pyrazin-8-yl]quinoline-8-carbonitrile]
6 nM	4 nM	[2H]c1ccc2c(N3C[C@@H]4CN(c5ncc(N6CC(C)(N)C6)cc5C)CCN4[C@@H](C)C3)ccc(C#N)c2n1 [Example 118, 5-[(4S,9aR)-8-[5-(3-amino-3-methyl-azetidin-1-yl)-3-methyl-2-pyridyl]-4-methyl-3,4,6,7,9,9a-hexahydro-1H-pyrazino[1,2-a]pyrazin-2-yl]-2-deuterio-quinoline-8-carbonitrile]
8 nM	13 nM	C[C@@H]1CN(c2ccc(C#N)c3ncccc23)C[C@@H]2CN(c3ccnc(N4CC(C)(N)C4)c3)CCN21 [Example 56, 5-[(4R,9aS)-8-[2-(3-amino-3-methyl-azetidin-1-yl)-4-pyridyl]-4-methyl-3,4,6,7,9,9a-hexahydro-1H-pyrazino[1,2-a]pyrazin-2-yl]quinoline-8-carbonitrile]
17 nM	10 nM	[2H]c1ccc2c(N3C[C@@H]4CN(c5ccc(N6C[C@@H](N)[C@H](OC)C6)nc5)CCN4[C@@H](C)C3)ccc(C#N)c2n1 [Example 115, 5-[(4S,9aR)-8-[6-[(3R,4R)-3-amino-4-methoxy-pyrrolidin-1-yl]-3-pyridyl]-4-methyl-3,4,6,7,9,9a-hexahydro-1H-pyrazino[1,2-a]pyrazin-2-yl]-2-deuterio-quinoline-8-carbonitrile]
52 nM	22 nM	C[C@@H]1CN(c2ccc(C#N)c3ncccc23)C[C@@H]2CN(Cc3ccc(N4CCNCC4)nc3)CCN21 [Example 8, 5-[(4R,9aS)-4-methyl-8-[(6-piperazin-1-yl-3-pyridyl)methyl]-3,4,6,7,9,9a-hexahydro-1H-pyrazino[1,2-a]pyrazin-2-yl]quinoline-8-carbonitrile]
21 nM	45 nM	C[C@@H]1CN(c2ccc(C#N)c3ncccc23)C[C@@H]2CN(Cc3cccc4c3CNCC4)CCN21 [Example 71, 5-[(4R,9aS)-4-methyl-8-(1,2,3,4-tetrahydroisoquinolin-8-ylmethyl)-3,4,6,7,9,9a-hexahydro-1H-pyrazino[1,2-a]pyrazin-2-yl]quinoline-8-carbonitrile]

SMILES	IC50 (human TLR8)	IC50 (human TLR7)
[2H]c1ccc2c(N3C[C@@H]4CN(c5ncc(N6CC7CC(C6)N7)cc5C)CCN4[C@@H](C)C3)ccc(C#N)c2n1 [Example 108, 5-[(4S,9aR)-8-[5-(3,6-diazabicyclo[3.1.1]heptan-3-yl)-3-methyl-2-pyridyl]-4-methyl-3,4,6,7,9,9a-hexahydro-1H-pyrazino[1,2-a]pyrazin-2-yl]-2-deuterio-quinoline-8-carbonitrile]	6 nM	3 nM
